Experimental data from USRE30241E, “Esters of 3-(hydroxy or hydroxymethyl)-4-hydroxyphenyl aminomethyl ketones” (Sterling Drug Inc., priority 1970, dated 1980).
Counter-ions that a name gives are not always drawn. Like-named read-outs stand apart in the source and are kept apart here. Blank lines part the entries; values can stand above or below the compound they belong to.

Legend:
[1] = test system: guinea pig bronchioles constricted by carbachol; experiment: Bronchodilator Test Method II, in vitro perfused guinea pig lung; conditions: for ED50: carbachol (Doryl) 1:5 million
Experimental: In this method bronchodilator activity in vitro was determined by testing the effect of graded doses of the test compounds on guinea pig bronchioles constricted by carbachol, using the technique reported by Sollman and von Oettingen, Proc. Soc, Exp. Biol. Med., 25,692 (1928) as modified by Tainter, Pedden, and James, J. Pharm. Exp. Ther., 51, 371 (1934) and by Luduena, von Euler, Tullar, and Lands, Arch. intern. Pharmacol., III, 392 (1957).

[2] = Solubility and pH of salts; conditions: for pH of a 1 percent aqueous solution: 1 percent aqueous solution of the salt; for precipitation on raising pH to 7.0: 1 percent aqueous solution, N/10 sodium hydroxide to pH 7.0
[3] = test system: carbachol- or histamine-induced bronchoconstriction; experiment: Bronchodilator Test Method I, anesthetized dog, intravenous activity; format: in vivo; conditions: Canis lupus familiaris, read-out: Bronchodilatation; for inhibition in vivo at 0.0285 mg/kg: 28.5 mcg/kg i.v.; for inhibition in vivo at 0.114 mg/kg: 114 mcg/kg i.v.; for inhibition in vivo at 0.228 mg/kg: 228 mcg/kg i.v.; for inhibition in vivo at 0.0055 mg/kg: 5.5 mcg/kg i.v.; for inhibition in vivo at 0.0056 mg/kg: 5.6 mcg/kg i.v.; for inhibition in vivo at 0.0112 mg/kg: 11.2 mcg/kg i.v.; for inhibition in vivo at 0.112 mg/kg: 112.0 mcg/kg i.v.; for inhibition in vivo at 0.0224 mg/kg: 22.4 mcg/kg i.v.; for inhibition in vivo at 0.0012 mg/kg: 1.2 mcg/kg i.v.; for inhibition in vivo at 0.003 mg/kg: 3.0 mcg/kg i.v.
Summary of the method: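 Pentobarbital-anesthetized (30 mg/kg i.v.), open-chest, artificially ventilated dogs were given i.v. carbachol (4-6 µg/kg) or histamine diphosphate (35-45 µg/kg). Test compound was given i.v. mixed with, after, or 1-10 min before the constrictor.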

[4] = 1 percent solution in dimethyl sulfoxide
[5] = 1 percent solution in glycerol formal

Compound: CCCC(=O)Oc1ccc(C(O)CNC(C)(C)C)cc1OC(=O)CCC.Cl (stereo not drawn) [Example 1, 3,4-bis(butyryloxy)-alpha-(tert-butylaminomethyl)benzyl alcohol hydrochloride]
ED50 [1]: 0.23 µg (base)
Duration, Mean ([1]; dose 0.5 mcg (base)): 9 ± 1.0 min
pH of a 1 percent aqueous solution [2]: 6.0
precipitation on raising pH to 7.0 [2]: a precipitate formed
solubility ([2]; water): ≥ 200 mg/mL

Compound: CC(C)CC(=O)Oc1ccc(C(O)CNC(C)(C)C)cc1O (stereo not drawn) [Example 58, 3-hydroxy-4-(isovaleryloxy)-alpha-(tert-butylaminomethyl)benzyl alcohol methanesulfonate]
ED50 [1]: 1.4 µg (base)
Duration, Mean ([1]; dose 2.4 mcg (base)): 12 ± 2.5 min
solubility ([2]; water): ≥ 50 mg/mL

Compound: CCC(C)C(=O)Oc1ccc(C(O)CNC(C)(C)C)cc1OC(=O)C(C)CC.Cl (stereo not drawn) [Example 4, 3,4-bis(2-methylbutanoyloxy)-alpha-(tert-butylaminomethyl)benzyl alcohol hydrochloride]
ED50 [1]: 0.45 µg (base)
Duration, Mean ([1]; dose 1 mcg (base)): 20 ± 3 min
solubility ([2]; water): ≥ 50 mg/mL
inhibition in vivo at 0.0055 mg/kg ([3]; 2 min, 2 min): 48%
inhibition in vivo at 0.0055 mg/kg ([3]; 0.5 h, 30 min): 5%
inhibition in vivo at 0.0055 mg/kg ([3]; 1 h, 60 min): 0%

Compound: Cc1ccc(C(=O)Oc2ccc(C(=O)CNC(C)(C)C)cc2OC(=O)c2ccc(C)cc2)cc1 [3,4-bis(p-toluyloxy)phenyl tert-butylaminomethyl ketone hydrochloride]
solubility ([2]; water): < 1 mg/mL

Compound: CC(C)CC(=O)Oc1ccc(C(O)CNC(C)(C)C)cc1OC(=O)CC(C)C.Cl (stereo not drawn) [Example 3, 3,4-bis(isovaleryloxy)-alpha-(tert-butylaminomethyl)-benzyl alcohol hydrochloride]
ED50 [1]: 0.6 µg (base)
Duration, Mean ([1]; dose 1.2 mcg (base)): 18 ± 4 min
pH of a 1 percent aqueous solution [2]: 5.4
precipitation on raising pH to 7.0 [2]: a precipitate formed
solubility ([2]; water): ≥ 200 mg/mL
inhibition in vivo at 0.00055 mg/kg ([3]; 1 min, 0.55 mcg/kg i.v., 1-2 min): 32%
inhibition in vivo at 0.0011 mg/kg ([3]; 1 min, 1.1 mcg/kg i.v., 1-2 min): 54%
inhibition in vivo at 0.0022 mg/kg ([3]; 1 min, 2.2 mcg/kg i.v., 1-2 min): 74%

Now from value to compound, other results behind:

precipitation on dilution with three volumes of water [2, 4]: no precipitate formed
precipitation on dilution with three volumes of water [2, 5]: no precipitate formed
solubility ([2]; dimethyl sulfoxide, organic solvent or mixture): ≥ 10 mg/mL
solubility ([2]; glycerol formal, organic solvent or mixture): ≥ 10 mg/mL
Compound: CC(C)(C)NCC(O)c1ccc(OC(=O)c2ccccc2)c(OC(=O)c2ccccc2)c1.Cl (stereo not drawn) [Example 29, 3,4-bis(benzoyloxy)-alpha-(tert-butylaminomethyl)benzyl alcohol hydrochloride]
ED50 [1]: 1.1 µg (base)
Duration, Mean ([1]; dose 3.2 mcg (base)): 34 ± 6.4 min

precipitation on dilution with three volumes of water [2, 4]: no precipitate formed
precipitation on dilution with three volumes of water [2, 5]: no precipitate formed
solubility ([2]; polyethyleneglycol 200, organic solvent or mixture): < 10 mg/mL
Compound: COc1ccc(C(=O)Oc2ccc(C(O)CNC(C)(C)C)cc2OC(=O)c2ccc(OC)cc2)cc1.Cl (stereo not drawn) [Example 33, 3,4-bis(p-anisoyloxy)-alpha-(tert-butylaminomethyl)benzyl alcohol hydrochloride]
ED50 [1]: 6.9 µg (base)
Duration, Mean ([1]; dose 10 mcg (base)): 32 ± 5 min

solubility ([2]; water): ≥ 10 mg/mL
Compound: CC(C)(C)CC(=O)Oc1ccc(C(O)CNC(C)(C)C)cc1OC(=O)CC(C)(C)C.Cl (stereo not drawn) [Example 7, 3,4-bis(3,3-dimethylbutanoyloxy)-alpha-(tert-butylaminomethyl)benzyl alcohol hydrochloride]
ED50 [1]: 23 µg (base)
Duration, Mean ([1]; dose 32 mcg (base)): 85 ± 17 min
inhibition in vivo at 0.0285 mg/kg ([3]; 5 min, 5 min): 28%
inhibition in vivo at 0.114 mg/kg ([3]; 5 min, 5 min): 52%
inhibition in vivo at 0.228 mg/kg ([3]; 5 min, 5 min): 98%
inhibition in vivo at 0.0285 mg/kg ([3]; 0.5 h, 30 min): 32%
inhibition in vivo at 0.114 mg/kg ([3]; 0.5 h, 30 min): 42%
inhibition in vivo at 0.228 mg/kg ([3]; 0.5 h, 30 min): 77%
inhibition in vivo at 0.0285 mg/kg ([3]; 1 h, 60 min): 24%
inhibition in vivo at 0.114 mg/kg ([3]; 1 h, 60 min): 33%
inhibition in vivo at 0.228 mg/kg ([3]; 1 h, 60 min): 68%
inhibition in vivo at 0.0285 mg/kg ([3]; 2 h, 120 min): 24%
inhibition in vivo at 0.114 mg/kg ([3]; 2 h, 120 min): 25%
inhibition in vivo at 0.228 mg/kg ([3]; 2 h, 120 min): 56%
inhibition in vivo at 0.0285 mg/kg ([3]; 3 h, 180 min): 22%
inhibition in vivo at 0.114 mg/kg ([3]; 3 h, 180 min): 19%
inhibition in vivo at 0.228 mg/kg ([3]; 3 h, 180 min): 50%
inhibition in vivo at 0.0285 mg/kg ([3]; 4 h, 240 min): 23%
inhibition in vivo at 0.228 mg/kg ([3]; 4 h, 240 min): 44%

solubility ([2]; water): ≥ 50 mg/mL
Compound: CC(C)(C)NCC(O)c1ccc(OC(=O)C(C)(C)C)c(OC(=O)C(C)(C)C)c1.Cl (stereo not drawn) [Example 5, 3,4-bis(pivalyloxy)-alpha-(tert-butylaminomethyl)benzyl alcohol hydrochloride]
ED50 ([1]; hydrochloride): 0.94 µg (base)
Duration, Mean ([1]; dose 2 mcg (base)): 18 ± 4.2 min
inhibition in vivo at 0.0028 mg/kg ([3]; 5 min, 2.8 mcg/kg i.v., 5 min): 14%
inhibition in vivo at 0.0056 mg/kg ([3]; 5 min, 5 min): 53%
inhibition in vivo at 0.0112 mg/kg ([3]; 5 min, 5 min): 57%
inhibition in vivo at 0.112 mg/kg ([3]; 5 min, 5 min): 100%
inhibition in vivo at 0.0056 mg/kg ([3]; 0.5 h, 30 min): 27%
inhibition in vivo at 0.0112 mg/kg ([3]; 0.5 h, 30 min): 30%
inhibition in vivo at 0.0224 mg/kg ([3]; 0.5 h, 30 min): 81%
inhibition in vivo at 0.112 mg/kg ([3]; 0.5 h, 30 min): 92%
inhibition in vivo at 0.0056 mg/kg ([3]; 1 h, 60 min): 26%
inhibition in vivo at 0.0112 mg/kg ([3]; 1 h, 60 min): 4%
inhibition in vivo at 0.0224 mg/kg ([3]; 1 h, 60 min): 62%
inhibition in vivo at 0.112 mg/kg ([3]; 1 h, 60 min): 59%
inhibition in vivo at 0.0224 mg/kg ([3]; 2 h, 120 min): 62%
inhibition in vivo at 0.112 mg/kg ([3]; 2 h, 120 min): 13%
inhibition in vivo at 0.0224 mg/kg ([3]; 3 h, 180 min): 15%
inhibition in vivo at 0.0224 mg/kg ([3]; 4 h, 240 min): 0%

solubility ([2]; water): ≥ 50 mg/mL
Compound: CC(C)CC(=O)Oc1cc(C(O)CNC(C)(C)C)ccc1OC(=O)C(C)(C)C.Cl (stereo not drawn) [Example 71, 3-(isovaleryloxy)-4-(pivalyloxy)-alpha-(tert-butylaminomethyl)benzylalcohol hydrochloride]
ED50 [1]: 0.63 µg (base)
Duration, Mean ([1]; dose 2 mcg (base)): 26 min

solubility ([2]; water): ≥ 50 mg/mL
Compound: CCC(C)CC(=O)Oc1ccc(C(O)CNC(C)(C)C)cc1OC(=O)CC(C)CC.Cl (stereo not drawn) [Example 6, 3,4-bis(3-methylpentanoyloxy)-alpha-(tert-butylaminomethyl)benzyl alcohol hydrochloride]
ED50 [1]: 1.3 µg (base)
Duration, Mean ([1]; dose 3.2 mcg (base)): 43 ± 3.7 min

precipitation on dilution with three volumes of water [2, 4]: no precipitate formed
solubility ([2]; polyethyleneglycol, organic solvent or mixture): < 1 mg/mL
solubility ([2]; water): < 1 mg/mL
Compound: CC(C)(C)NCC(O)c1ccc(OC(=O)C2CCCCC2)c(OC(=O)C2CCCCC2)c1.Cl (stereo not drawn) [Example 15, 3,4-bis(cyclohexanecarbonyloxy)-alpha-(tert-butylaminomethyl)benzyl alcohol hydrochloride]
ED50 [1]: 1.3 µg (base)
Duration, Mean ([1]; dose 3.2 mcg (base)): 53 ± 7 min
inhibition in vivo at 0.0012 mg/kg ([3]; 2 min, 2 min): 20%
inhibition in vivo at 0.003 mg/kg ([3]; 2 min, 2 min): 36%
inhibition in vivo at 0.0012 mg/kg ([3]; 0.5 h, 30 min): 27%
inhibition in vivo at 0.0012 mg/kg ([3]; 1 h, 60 min): 8%
inhibition in vivo at 0.003 mg/kg ([3]; 1 h, 60 min): 31%
inhibition in vivo at 0.0012 mg/kg ([3]; 2 h, 120 min): 0%
inhibition in vivo at 0.003 mg/kg ([3]; 2 h, 120 min): 26%
inhibition in vivo at 0.003 mg/kg ([3]; 3 h, 180 min): 20%
